Columns and labels:
[1] = biological target: T1, PYR1 K59R F108A S122G A160V (Arabidopsis thaliana, UniProt O49686, A160V/F108A/K59R/S122G); experiment: Y2H NNK Mutagenesis (HAB1, X-gal); assay type: cell-based
T1 construct: expressed in transfected cells; host or cells: S. cerevisiae Y190 pACT-HAB1
Protocol: (§1) The preceding efforts identified PYR1^K59R,F108A,S122G, which is responsive to mandipropamid concentrations as low as 1 μM. We next attempted to improve the mandipropamid receptor by screening for additional pocket-located mutations that improve compound responsiveness. We subjected PYR1^K59R,F108A,S122G to two separate mutagenesis experiments. We first examined the effects of adding single additional mutations at each of the other 23 ligand-contacting residues that are not altered in the PYR1^K59R,F108A,S122G backbone, using NNK codon-randomization primers. Each NNK primer was used to generate a pool of PYR1^K59R,F108A,S122G receptors containing additional mutations at a single ligand-contacting residue. DNA for this mutant pool was prepared and then transformed into a pACT-HAB1 MAV99 reporter strain, which allows URA3 based selection of active receptors (Peterson et al., 2010). The pooled yeast cells were plated on media containing 0.5 μM mandipropamid, a concentration too low to allow growth of a control MAV99 pACT-HAB1 reporter strain expressing pBD-PYR1^K59R,F108A,S122G. […] Mutants enabling ligand-dependent interactions were sequenced and plasmid DNA for these mutants was isolated and introduced into Y190 pACT-HAB1 so that X-gal staining could be utilized to evaluate receptor sensitivity. This process was repeated for each of the remaining 22 NNK primers. These efforts yielded 10 mutations (V81C, V81I, V81T, V83L, L87A, F159L, F159M, F159V, A160V, V164I) that enhance the mandipropamid sensitivity of PYR1^K59R,F108A,S122G (see entries labeled “NNK Mutagenesis Screen” in Table 1).

[2] = biological target: T2, PYR1 K59R F108A S122G F159L (Arabidopsis thaliana, UniProt O49686, F108A/F159L/K59R/S122G); experiment: Y2H NNK Mutagenesis (HAB1, X-gal); assay type: cell-based
T2 construct: expressed in transfected cells; host or cells: S. cerevisiae Y190 pACT-HAB1
Protocol: as §1

[3] = biological target: T3, PYR1 K59R F108A S122G F159M (Arabidopsis thaliana, UniProt O49686, F108A/F159M/K59R/S122G); experiment: Y2H NNK Mutagenesis (HAB1, X-gal); assay type: cell-based
T3 construct: expressed in transfected cells; host or cells: S. cerevisiae Y190 pACT-HAB1
Protocol: as §1

[4] = biological target: T4, PYR1 K59R F108A S122G F159V (Arabidopsis thaliana, UniProt O49686, F108A/F159V/K59R/S122G); experiment: Y2H NNK Mutagenesis (HAB1, X-gal); assay type: cell-based
T4 construct: expressed in transfected cells; host or cells: S. cerevisiae Y190 pACT-HAB1
Protocol: as §1

[5] = biological target: T5, PYR1 K59R F108A S122G L87A (Arabidopsis thaliana, UniProt O49686, F108A/K59R/L87A/S122G); experiment: Y2H NNK Mutagenesis (HAB1, X-gal); assay type: cell-based
T5 construct: expressed in transfected cells; host or cells: S. cerevisiae Y190 pACT-HAB1
Protocol: as §1

[6] = biological target: T6, PYR1 K59R F108A S122G V164I (Arabidopsis thaliana, UniProt O49686, F108A/K59R/S122G/V164I); experiment: Y2H NNK Mutagenesis (HAB1, X-gal); assay type: cell-based
T6 construct: expressed in transfected cells; host or cells: S. cerevisiae Y190 pACT-HAB1
Protocol: as §1

[7] = biological target: T7, PYR1 K59R F108A S122G V81C (Arabidopsis thaliana, UniProt O49686, F108A/K59R/S122G/V81C); experiment: Y2H NNK Mutagenesis (HAB1, X-gal); assay type: cell-based
T7 construct: expressed in transfected cells; host or cells: S. cerevisiae Y190 pACT-HAB1
Protocol: as §1

[8] = biological target: T8, PYR1 K59R F108A S122G V81I (Arabidopsis thaliana, UniProt O49686, F108A/K59R/S122G/V81I); experiment: Y2H NNK Mutagenesis (HAB1, X-gal); assay type: cell-based
T8 construct: expressed in transfected cells; host or cells: S. cerevisiae Y190 pACT-HAB1
Protocol: as §1

[9] = biological target: T9, PYR1 K59R F108A S122G V81T (Arabidopsis thaliana, UniProt O49686, F108A/K59R/S122G/V81T); experiment: Y2H NNK Mutagenesis (HAB1, X-gal); assay type: cell-based
T9 construct: expressed in transfected cells; host or cells: S. cerevisiae Y190 pACT-HAB1
Protocol: as §1

[10] = biological target: T10, PYR1 K59R F108A S122G V83L (Arabidopsis thaliana, UniProt O49686, F108A/K59R/S122G/V83L); experiment: Y2H NNK Mutagenesis (HAB1, X-gal); assay type: cell-based
T10 construct: expressed in transfected cells; host or cells: S. cerevisiae Y190 pACT-HAB1
Protocol: as §1

[11] = test system: homozygous PYR1^MANDI expressing transgenic plants; experiment: thermal imaging of leaf temperature; assay type: in vivo, Arabidopsis
Protocol: To investigate if the system is sufficient to control ABA responses in vegetative tissues, we generated homozygous transgenic lines for two 35S-driven lines (E15 and E16) and 2 RBCS-driven lines (F29 and F34). These materials were grown along side wild type plants and a previously constructed 35S::GFP-PYR1 over expression line (Park et al., 2009). These plants were grown until three weeks old and then treated with a solution containing either 2 μM mandipropamid and 0.02% Silwet or a mock treatment containing 0.02% Silwet and the mandipropamid carrier solvent (DMSO). 24 hours after treatment, the leaf temperatures were examined using a thermal imaging camera. It is well known that ABA-induced guard cell closure reduces transpiration, which leads to increases in leaf temperatures. […] Since guard cell aperture is the primary determinant of transpiration rates, thermal imaging is a useful way to indirectly infer relative transpiration rates and guard cell aperture at the whole plant level. As is shown in FIG. 3, mandipropamid treatment of homozygous PYR1^MANDI expressing transgenic plants leads to large changes in leaf temperature (˜2° C. increase) within 24 hours of treatment.
Treatment of plants with abscisic acid leads to the induction of CYP707A cytochrome P450s, which hydroxylate ABA at its 8′ methyl group. […] Thus, ABA applications lose effect over time due to metabolic inactivation. Given that mandipropamid is a non-native molecule, it is likely not a degraded by the CYP707A enzyme system. […] Plants were treated with mock, 1, 5 or 20 μM mandipropamid and then analyzed by thermography at 4 hours, 3 and 6 days after treatment. […] Additionally, control and 1 μM treated plants flowered during the experiment while flowering was prevented in the 5 μM and 20 μM treated mandipropamid plants.

[12] = test system: PYR1^MANDI expressing transgenic plants (E15, E16, F29, F34); experiment: water loss of detached rosettes; assay type: in vivo, Arabidopsis; conditions: 2 μM mandipropamid, 24 hours before detachment
Protocol: As another measure of guard cell physiology, we measured rates of water loss in transgenic and control plants exposed to mock or mandipropamid treatments. It is well known that ABA treatments reduce leaf water loss via guard cell closure. 3 week-old homozygous transgenic plants (E15, E16, F29 and F34) and control wild type plants were treated with 2 μM mandipropamid or mock solutions (with 0.02% Silwet as described above). After 24 hours, whole rosettes were detached and their masses monitored over time. […] These experiments, together with the thermal imaging experiments, indicate that mandipropamid can reduce guard cell aperture and reduce transpiration rates in PYR1^MANDI expressing transgenic plants, just as ABA is well known to do to wild type plants.

T9 sequence (O49686 whole entry K59R/V81T/F108A/S122G): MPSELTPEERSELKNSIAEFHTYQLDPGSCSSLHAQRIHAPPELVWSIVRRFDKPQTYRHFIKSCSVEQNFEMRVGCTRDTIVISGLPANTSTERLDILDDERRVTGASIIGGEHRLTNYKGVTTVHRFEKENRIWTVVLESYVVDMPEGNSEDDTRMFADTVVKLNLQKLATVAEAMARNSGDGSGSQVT
T9 sequence (Q9CAJ0 23-511 partner): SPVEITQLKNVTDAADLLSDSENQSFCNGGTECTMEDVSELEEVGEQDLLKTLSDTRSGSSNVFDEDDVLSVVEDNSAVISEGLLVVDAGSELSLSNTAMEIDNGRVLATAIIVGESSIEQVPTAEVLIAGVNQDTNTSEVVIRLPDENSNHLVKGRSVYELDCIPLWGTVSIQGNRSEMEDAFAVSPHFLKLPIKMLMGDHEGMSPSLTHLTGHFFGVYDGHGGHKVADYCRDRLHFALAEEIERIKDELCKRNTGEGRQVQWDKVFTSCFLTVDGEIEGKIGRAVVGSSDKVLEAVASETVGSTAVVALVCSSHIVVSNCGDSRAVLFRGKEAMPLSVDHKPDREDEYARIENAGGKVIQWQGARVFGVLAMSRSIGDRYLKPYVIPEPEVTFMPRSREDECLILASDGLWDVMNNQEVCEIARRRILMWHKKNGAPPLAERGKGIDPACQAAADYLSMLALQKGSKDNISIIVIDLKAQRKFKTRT
T8 sequence (O49686 whole entry K59R/V81I/F108A/S122G): as the sequence (O49686 whole entry K59R/V81T/F108A/S122G) above, with T81I counted along it
T8 sequence (Q9CAJ0 23-511 partner): as the sequence (Q9CAJ0 23-511 partner) above
T6 sequence (O49686 whole entry K59R/F108A/S122G/V164I): as the sequence (O49686 whole entry K59R/V81T/F108A/S122G) above, with T81V, V164I counted along it
T6 sequence (Q9CAJ0 23-511 partner): as the sequence (Q9CAJ0 23-511 partner) above
T4 sequence (O49686 whole entry K59R/F108A/S122G/F159V): as the sequence (O49686 whole entry K59R/V81T/F108A/S122G) above, with T81V, F159V counted along it
T4 sequence (Q9CAJ0 23-511 partner): as the sequence (Q9CAJ0 23-511 partner) above
T10 sequence (O49686 whole entry K59R/V83L/F108A/S122G): as the sequence (O49686 whole entry K59R/V81T/F108A/S122G) above, with T81V, V83L counted along it
T10 sequence (Q9CAJ0 23-511 partner): as the sequence (Q9CAJ0 23-511 partner) above
T3 sequence (O49686 whole entry K59R/F108A/S122G/F159M): as the sequence (O49686 whole entry K59R/V81T/F108A/S122G) above, with T81V, F159M counted along it
T3 sequence (Q9CAJ0 23-511 partner): as the sequence (Q9CAJ0 23-511 partner) above
T2 sequence (O49686 whole entry K59R/F108A/S122G/F159L): as the sequence (O49686 whole entry K59R/V81T/F108A/S122G) above, with T81V, F159L counted along it
T2 sequence (Q9CAJ0 23-511 partner): as the sequence (Q9CAJ0 23-511 partner) above
T5 sequence (O49686 whole entry K59R/L87A/F108A/S122G): as the sequence (O49686 whole entry K59R/V81T/F108A/S122G) above, with T81V, L87A counted along it
T5 sequence (Q9CAJ0 23-511 partner): as the sequence (Q9CAJ0 23-511 partner) above
T1 sequence (O49686 whole entry K59R/F108A/S122G/A160V): as the sequence (O49686 whole entry K59R/V81T/F108A/S122G) above, with T81V, A160V counted along it
T1 sequence (Q9CAJ0 23-511 partner): as the sequence (Q9CAJ0 23-511 partner) above
T7 sequence (O49686 whole entry K59R/V81C/F108A/S122G): as the sequence (O49686 whole entry K59R/V81T/F108A/S122G) above, with T81C counted along it
T7 sequence (Q9CAJ0 23-511 partner): as the sequence (Q9CAJ0 23-511 partner) above

Structure (SMILES): C#CCOc1ccc(CCNC(=O)C(OCC#C)c2ccc(Cl)cc2)cc1OC (stereo not drawn) [Mandipropamid, mandipropamid]
- Threshold [1]: 0.25 µM
- Threshold [2]: 0.05 µM
- Threshold [3]: 0.25 µM
- Threshold [4]: 0.25 µM
- Threshold [5]: 0.25 µM
- Threshold [6]: 0.25 µM
- Threshold [7]: 0.25 µM
- Threshold [8]: 0.25 µM
- Threshold [9]: 0.25 µM
- Threshold [10]: 0.05 µM
- flowering during the experiment ([11]; 1 μM mandipropamid): flowered
- leaf temperature increase ([11]; 2 μM mandipropamid, within 24 hours of treatment): ~2 °C
- flowering during the experiment ([11]; 5 μM mandipropamid): prevented
- persistence of increased leaf temperature ([11]; 5 μM mandipropamid): at least 6 days
- flowering during the experiment ([11]; 20 μM mandipropamid): prevented
- persistence of increased leaf temperature ([11]; 20 μM mandipropamid): at least 6 days
- time to increased leaf temperature after treatment ([11]; mandipropamid treatment): ≤ 4 h
- water loss of detached rosettes [12]: lower water loss
